Reference: paper PMC3745005 (Journal of biomolecular screening, 2012)

Molecular target: PDE4A (catalytic domain of PDE4A10) (Homo sapiens, UniProt P27815)
Test: enthalpy array nanocalorimetry, cAMP hydrolysis
Assay type: biochemical

Sequence of PDE4A (catalytic domain of PDE4A10) (P27815 351-683): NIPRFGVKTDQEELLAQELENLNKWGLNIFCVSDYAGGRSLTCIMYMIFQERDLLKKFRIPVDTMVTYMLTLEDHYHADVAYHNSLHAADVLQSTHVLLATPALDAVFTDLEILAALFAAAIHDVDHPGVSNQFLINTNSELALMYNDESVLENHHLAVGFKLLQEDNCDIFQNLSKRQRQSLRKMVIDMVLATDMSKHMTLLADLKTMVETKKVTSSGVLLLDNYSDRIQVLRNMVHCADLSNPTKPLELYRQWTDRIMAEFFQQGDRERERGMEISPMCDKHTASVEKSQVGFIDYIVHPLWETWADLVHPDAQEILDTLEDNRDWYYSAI

Ki: 8.3 ± 1.5 µM
SMILES: CC(C)Cn1c(=O)n(C)c(=O)c2[nH]cnc21 [IBMX]
